Experimental data: ChEMBL document CHEMBL1201862, “PubChem BioAssay data set” (2004)
Active and inactive are the calls of the source.

Experiments:
[1] = target: Lysosomal acid glucosylceramidase (Homo sapiens, UniProt P04062); assay: Dose response cell-based high throughput screening assay to identify enhancers of beta-glucosidase activity. [Related pubchem assays: 784 ]; type: functional
Staphylococcus aureus = assay: Inhibitors of Bacterial Quorum Sensing Structure Activity Relationship (SAR) Analysis: Dose Response Assay. [Related pubchem assays: 700, 527 ]; type: functional, organism-based
[2] = target: T1, Eukaryotic translation initiation factor 2-alpha kinase 3 (Homo sapiens, UniProt Q9NZJ5); assay: Counterscreen assay for PERK inhibitors: Dose response cell-based high throughput screening assay to measure inhibition of PERK at 6 hours. [Related pubchem assays: 1522, 1416 ]; type: functional
T1 sequence (Q9NZJ5 whole entry): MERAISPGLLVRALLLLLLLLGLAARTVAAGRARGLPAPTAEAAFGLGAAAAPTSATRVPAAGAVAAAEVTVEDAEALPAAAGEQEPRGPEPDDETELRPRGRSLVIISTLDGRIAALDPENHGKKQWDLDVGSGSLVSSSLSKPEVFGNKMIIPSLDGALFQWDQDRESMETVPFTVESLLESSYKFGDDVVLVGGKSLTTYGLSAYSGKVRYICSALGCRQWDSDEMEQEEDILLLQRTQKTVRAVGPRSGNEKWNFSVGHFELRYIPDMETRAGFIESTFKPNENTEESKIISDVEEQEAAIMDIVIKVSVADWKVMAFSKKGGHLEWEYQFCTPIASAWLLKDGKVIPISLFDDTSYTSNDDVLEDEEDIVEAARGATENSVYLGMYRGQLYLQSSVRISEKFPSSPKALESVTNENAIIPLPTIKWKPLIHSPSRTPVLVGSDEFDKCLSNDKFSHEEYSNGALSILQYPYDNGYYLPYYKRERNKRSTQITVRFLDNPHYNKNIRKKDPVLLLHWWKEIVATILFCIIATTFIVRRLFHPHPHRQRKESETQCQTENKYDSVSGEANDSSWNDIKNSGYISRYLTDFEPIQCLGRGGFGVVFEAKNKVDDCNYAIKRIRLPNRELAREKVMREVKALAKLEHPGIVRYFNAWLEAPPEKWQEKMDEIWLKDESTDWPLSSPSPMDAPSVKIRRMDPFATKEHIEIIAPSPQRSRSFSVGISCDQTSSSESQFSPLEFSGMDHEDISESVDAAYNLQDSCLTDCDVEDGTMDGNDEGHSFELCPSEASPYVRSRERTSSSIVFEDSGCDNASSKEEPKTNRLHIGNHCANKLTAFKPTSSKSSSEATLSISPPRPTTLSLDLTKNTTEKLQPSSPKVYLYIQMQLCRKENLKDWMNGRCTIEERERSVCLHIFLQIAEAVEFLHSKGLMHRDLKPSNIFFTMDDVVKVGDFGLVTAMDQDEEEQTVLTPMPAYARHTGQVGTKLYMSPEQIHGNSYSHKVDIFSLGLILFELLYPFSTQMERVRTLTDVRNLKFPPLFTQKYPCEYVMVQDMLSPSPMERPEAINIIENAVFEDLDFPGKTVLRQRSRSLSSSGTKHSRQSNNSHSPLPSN

[3] = target: T1, Eukaryotic translation initiation factor 2-alpha kinase 3; assay: Dose response cell-based high-throughput screening assay to measure PERK inhibition. [Related pubchem assays: 1416 ]; type: functional
Streptococcus = assay: Luminescence Microorganism-Based Dose Response Follow up to Identify Compounds Cytotoxic to Streptococcus. [Related pubchem assays: 1677 (Project Summary), 1915, 1914, 1902 (Retest at Dose), 1900 (Counter Screen), 1662 (Primary HTS)]; type: functional, organism-based
[4] = target: Mothers against decapentaplegic homolog 3 (Homo sapiens, UniProt P84022); assay: blockers of Smad3 complex formation in lysate – cell lysate, secondary confirmation, chemiluminescent ELISA, HEK293 lysate, dose response (AID 1058); type: functional
Estrogen receptor = target: T2, Estrogen receptor (Homo sapiens, UniProt P03372); assay: blockers of SRC-3 recruitment to ERα – biochemical, ELISA, streptavidin-HRP readout, orthogonal assay, confirmation (AID 1079)
T2 sequence (P03372 whole entry): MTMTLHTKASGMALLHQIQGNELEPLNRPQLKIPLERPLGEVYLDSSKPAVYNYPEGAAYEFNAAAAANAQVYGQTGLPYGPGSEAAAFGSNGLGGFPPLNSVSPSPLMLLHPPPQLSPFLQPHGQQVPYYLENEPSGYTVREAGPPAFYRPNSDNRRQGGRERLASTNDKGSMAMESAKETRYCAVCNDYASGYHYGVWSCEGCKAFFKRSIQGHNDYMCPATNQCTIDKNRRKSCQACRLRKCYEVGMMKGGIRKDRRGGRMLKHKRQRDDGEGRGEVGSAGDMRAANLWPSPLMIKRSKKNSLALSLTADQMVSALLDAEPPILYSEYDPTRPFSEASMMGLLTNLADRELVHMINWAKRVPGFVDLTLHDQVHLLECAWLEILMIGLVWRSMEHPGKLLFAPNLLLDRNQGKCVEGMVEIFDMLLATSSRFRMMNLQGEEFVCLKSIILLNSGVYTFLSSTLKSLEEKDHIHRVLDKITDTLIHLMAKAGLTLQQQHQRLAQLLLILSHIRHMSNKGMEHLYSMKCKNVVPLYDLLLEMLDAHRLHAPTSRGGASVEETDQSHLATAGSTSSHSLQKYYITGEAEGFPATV

[5] = target: T3, Photoreceptor-specific nuclear receptor (Homo sapiens, UniProt Q9Y5X4); type: functional
T3 sequence (Q9Y5X4 whole entry): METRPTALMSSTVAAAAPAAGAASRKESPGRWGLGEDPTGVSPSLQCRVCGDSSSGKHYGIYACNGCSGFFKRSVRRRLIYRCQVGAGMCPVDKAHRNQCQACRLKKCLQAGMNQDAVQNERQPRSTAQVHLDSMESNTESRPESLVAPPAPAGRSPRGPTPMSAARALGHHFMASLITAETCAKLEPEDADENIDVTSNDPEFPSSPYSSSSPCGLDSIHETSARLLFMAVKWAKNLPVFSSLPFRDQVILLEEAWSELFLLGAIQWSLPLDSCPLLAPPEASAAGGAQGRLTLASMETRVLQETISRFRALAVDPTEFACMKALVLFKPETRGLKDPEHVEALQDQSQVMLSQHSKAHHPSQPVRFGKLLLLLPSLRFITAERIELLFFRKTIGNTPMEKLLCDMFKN

[6] = target: Peroxisome proliferator-activated receptor gamma/Nuclear receptor corepressor 2 (Homo sapiens, UniProt P37231+Q9Y618); type: functional
[7] = target: T4, Neuropeptides B/W receptor type 1 (Homo sapiens, UniProt P48145); assay: Fluorescence-based dose response cell-based high throughput screening assay to identify antagonists of the G-protein coupled receptor 7 (GPR7). [Related pubchem assays: 1952 (Screening assay (GPR7 antagonists).), 1880 (Summary AID.)]; type: functional
T4 sequence (P48145 whole entry): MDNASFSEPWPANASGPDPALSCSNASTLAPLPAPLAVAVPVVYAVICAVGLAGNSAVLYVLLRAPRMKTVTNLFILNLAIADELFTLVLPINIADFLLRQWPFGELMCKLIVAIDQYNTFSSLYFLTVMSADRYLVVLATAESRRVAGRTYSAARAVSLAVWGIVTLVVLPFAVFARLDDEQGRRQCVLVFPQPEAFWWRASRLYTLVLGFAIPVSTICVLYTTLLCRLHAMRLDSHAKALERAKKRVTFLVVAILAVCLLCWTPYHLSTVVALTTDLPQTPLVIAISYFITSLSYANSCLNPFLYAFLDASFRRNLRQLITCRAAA

[8] = target: T5, Short transient receptor potential channel 4 (Mus musculus, UniProt Q9QUQ5); assay: calcium entry via TRPC4 opening agents – cell-based, HEK293 TRPC4/mu-opioid, Fluo-4 calcium, dose response (AID 434937); type: functional
T5 sequence (Q9QUQ5 whole entry): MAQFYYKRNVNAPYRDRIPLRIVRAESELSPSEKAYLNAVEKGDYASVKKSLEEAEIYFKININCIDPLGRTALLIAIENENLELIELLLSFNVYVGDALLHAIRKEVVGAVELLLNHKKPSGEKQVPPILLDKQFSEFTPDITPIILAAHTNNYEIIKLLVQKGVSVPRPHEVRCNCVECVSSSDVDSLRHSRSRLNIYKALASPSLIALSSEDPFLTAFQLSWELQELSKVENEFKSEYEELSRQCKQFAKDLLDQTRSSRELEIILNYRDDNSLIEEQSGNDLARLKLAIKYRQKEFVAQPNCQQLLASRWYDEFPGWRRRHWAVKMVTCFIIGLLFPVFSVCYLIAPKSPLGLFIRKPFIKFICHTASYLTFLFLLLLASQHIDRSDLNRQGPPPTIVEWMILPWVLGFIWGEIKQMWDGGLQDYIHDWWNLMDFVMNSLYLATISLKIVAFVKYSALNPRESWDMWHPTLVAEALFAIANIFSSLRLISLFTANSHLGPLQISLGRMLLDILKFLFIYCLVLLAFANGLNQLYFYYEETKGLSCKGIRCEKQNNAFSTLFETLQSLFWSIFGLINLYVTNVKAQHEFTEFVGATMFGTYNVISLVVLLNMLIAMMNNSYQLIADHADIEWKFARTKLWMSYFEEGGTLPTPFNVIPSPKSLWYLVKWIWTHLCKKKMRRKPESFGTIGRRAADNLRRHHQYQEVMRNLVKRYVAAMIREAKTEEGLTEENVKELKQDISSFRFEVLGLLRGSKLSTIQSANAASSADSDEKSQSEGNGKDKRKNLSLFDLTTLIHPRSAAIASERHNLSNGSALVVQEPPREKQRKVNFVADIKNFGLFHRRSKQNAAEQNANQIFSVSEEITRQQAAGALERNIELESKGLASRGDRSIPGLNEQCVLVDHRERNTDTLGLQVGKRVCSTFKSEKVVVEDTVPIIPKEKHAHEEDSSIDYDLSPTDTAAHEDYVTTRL

[9] = target: Melanin-concentrating hormone receptor 1 (Homo sapiens, UniProt Q99705); assay: Fluorescence-based counterscreen for antagonists of the G-protein coupled receptor 7 (GPR7): cell-based high throughput dose response assay to identify antagonists of the melanin-concentrating hormone receptor 1 (MCHR1).; type: functional
Chain of Melanin-concentrating hormone receptor 1 (Q99705 whole entry): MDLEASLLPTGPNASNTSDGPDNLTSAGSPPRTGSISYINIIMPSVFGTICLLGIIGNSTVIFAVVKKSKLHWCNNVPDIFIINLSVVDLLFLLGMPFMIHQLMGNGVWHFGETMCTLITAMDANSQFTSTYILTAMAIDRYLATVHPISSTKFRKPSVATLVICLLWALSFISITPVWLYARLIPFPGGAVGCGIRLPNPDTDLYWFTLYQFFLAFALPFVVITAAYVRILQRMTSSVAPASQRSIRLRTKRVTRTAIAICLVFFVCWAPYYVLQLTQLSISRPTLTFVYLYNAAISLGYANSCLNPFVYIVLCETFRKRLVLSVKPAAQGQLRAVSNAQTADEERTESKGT

[10] = target: Glyceraldehyde-3-phosphate dehydrogenase (Homo sapiens, UniProt P04406)
Chain of Glyceraldehyde-3-phosphate dehydrogenase (P04406 whole entry): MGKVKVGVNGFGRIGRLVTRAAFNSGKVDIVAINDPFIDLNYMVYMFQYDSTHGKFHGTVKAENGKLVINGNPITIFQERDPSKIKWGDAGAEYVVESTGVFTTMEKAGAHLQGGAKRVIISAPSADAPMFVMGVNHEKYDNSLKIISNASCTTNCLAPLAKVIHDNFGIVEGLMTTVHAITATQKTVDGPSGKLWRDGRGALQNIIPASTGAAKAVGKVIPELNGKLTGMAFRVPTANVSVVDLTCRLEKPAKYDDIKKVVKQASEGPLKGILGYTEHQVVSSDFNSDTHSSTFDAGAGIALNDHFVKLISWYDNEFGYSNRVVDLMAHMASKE

[11] = target: Heat shock cognate 71 kDa protein (Homo sapiens, UniProt P11142); assay: In Vitro Hsc70 Dose Response Fluorescence Polarization Assay. [Related pubchem assays: 1072 ]
[12] = target: T6, Dual specificity protein phosphatase 6 (Rattus norvegicus, UniProt Q64346); type: functional
T6 sequence (Q64346 whole entry): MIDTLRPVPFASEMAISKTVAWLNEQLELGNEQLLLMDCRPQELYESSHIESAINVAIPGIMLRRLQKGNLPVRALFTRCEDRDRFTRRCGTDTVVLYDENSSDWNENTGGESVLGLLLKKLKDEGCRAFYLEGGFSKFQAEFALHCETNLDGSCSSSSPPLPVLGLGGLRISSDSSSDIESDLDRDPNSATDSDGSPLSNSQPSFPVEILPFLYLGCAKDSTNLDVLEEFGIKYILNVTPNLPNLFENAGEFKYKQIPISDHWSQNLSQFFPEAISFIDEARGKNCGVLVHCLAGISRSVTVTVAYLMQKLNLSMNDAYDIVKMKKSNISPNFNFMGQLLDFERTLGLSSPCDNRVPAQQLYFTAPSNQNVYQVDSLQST

[13] = target: T6, Dual specificity protein phosphatase 6
[14] = target: Heat shock 70 kDa protein 1A (Homo sapiens, UniProt P0DMV8); assay: inhibition of Hsp70 binding activity – biochemical, fluorescence polarization, SAR follow-up (AID 1072)
[15] = target: T7, Tyrosine-protein phosphatase non-receptor type 7 (Homo sapiens, UniProt P35236); type: functional
T7 sequence (P35236 whole entry): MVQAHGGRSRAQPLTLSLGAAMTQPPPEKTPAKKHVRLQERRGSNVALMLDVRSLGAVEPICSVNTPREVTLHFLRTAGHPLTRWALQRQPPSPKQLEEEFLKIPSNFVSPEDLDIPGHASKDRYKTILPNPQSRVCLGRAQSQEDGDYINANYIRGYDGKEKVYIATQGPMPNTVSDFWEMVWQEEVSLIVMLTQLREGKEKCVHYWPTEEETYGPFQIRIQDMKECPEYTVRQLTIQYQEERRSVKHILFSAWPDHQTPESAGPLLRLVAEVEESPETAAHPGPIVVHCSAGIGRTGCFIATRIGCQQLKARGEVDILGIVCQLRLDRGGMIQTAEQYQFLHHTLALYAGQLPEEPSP

[16] = target: Serine/threonine-protein phosphatase (Homo sapiens, UniProt Q9BPW0); assay: Counterscreen for inhibitors of PP1: fluorescence-based biochemical high throughput dose response assay to identify inhibitors of Protein Phosphatase 5 (PP5). [Related pubchem assays: 2034 (Summary (PP5 inhibitors)), 1987 (PP5 inhibitors in singlate), 2235 (PP1 inhibitors in singlate)]
Chain of Serine/threonine-protein phosphatase (Q9BPW0 whole entry): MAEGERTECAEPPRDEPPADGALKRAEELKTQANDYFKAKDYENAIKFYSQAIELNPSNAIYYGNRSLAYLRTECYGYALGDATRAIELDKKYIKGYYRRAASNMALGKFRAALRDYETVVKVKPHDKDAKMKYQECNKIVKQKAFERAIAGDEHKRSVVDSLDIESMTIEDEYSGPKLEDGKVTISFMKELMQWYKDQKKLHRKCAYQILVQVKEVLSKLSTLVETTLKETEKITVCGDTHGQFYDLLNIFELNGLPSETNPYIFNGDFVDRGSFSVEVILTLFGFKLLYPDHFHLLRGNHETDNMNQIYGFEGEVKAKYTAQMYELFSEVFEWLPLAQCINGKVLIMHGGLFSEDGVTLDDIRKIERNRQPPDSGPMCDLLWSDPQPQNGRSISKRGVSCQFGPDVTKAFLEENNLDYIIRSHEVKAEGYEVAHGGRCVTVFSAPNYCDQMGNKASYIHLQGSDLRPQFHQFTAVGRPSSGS

[17] = viability of HCT116 lacking mutant beta-catenin – cell-based, human colon tumor, dose response (AID 1045); type: functional;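 also: HCT116 colon tumor cells with beta catenin knocked out; cells exposed to compound for 60 hours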
[18] = viability of PTEN-deleted HCT116 cells – cell-based, HCT116 PTEN knockout, dose response (AID 1047); type: functional;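 also: HCT116 colon tumor cells with PTEN knocked out; cells exposed to compound for 60 hours before readout; potency for loss of cell viability measured by luminescence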
[19] = target: Serine/threonine-protein phosphatase PP1-alpha catalytic subunit (Homo sapiens, UniProt P62136); assay: inhibition of protein phosphatase 1 activity – biochemical, fluorescence, dose response (AID 2403);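 also: phosphatase turnover of OMFP into fluorescent 3-O-methylfluorescein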
Chain of Serine/threonine-protein phosphatase PP1-alpha catalytic subunit (P62136 whole entry, the tested form may be a part): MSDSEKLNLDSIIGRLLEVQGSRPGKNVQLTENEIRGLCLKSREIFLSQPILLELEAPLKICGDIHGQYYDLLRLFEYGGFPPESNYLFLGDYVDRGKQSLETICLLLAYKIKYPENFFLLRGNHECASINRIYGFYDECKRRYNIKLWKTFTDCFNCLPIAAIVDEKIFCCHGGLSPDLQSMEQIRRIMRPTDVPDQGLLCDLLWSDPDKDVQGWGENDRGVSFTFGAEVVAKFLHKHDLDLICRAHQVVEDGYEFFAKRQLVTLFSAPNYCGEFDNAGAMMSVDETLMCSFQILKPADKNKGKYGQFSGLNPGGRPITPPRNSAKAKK

[20] = CCR5-tropic HIV-1 fusion blockers – cell-based, CCR5-tropic Env, dose response (AID 2279); type: functional
[21] = target: T3, Photoreceptor-specific nuclear receptor; type: functional, cell-based
Nonstructural protein 1 = Nonstructural protein 1 (Influenza A virus, UniProt Q194T2); type: functional, Influenza A virus (A/California/07/2009(H1N1))
Chain of Nonstructural protein 1 (Q194T2 whole entry): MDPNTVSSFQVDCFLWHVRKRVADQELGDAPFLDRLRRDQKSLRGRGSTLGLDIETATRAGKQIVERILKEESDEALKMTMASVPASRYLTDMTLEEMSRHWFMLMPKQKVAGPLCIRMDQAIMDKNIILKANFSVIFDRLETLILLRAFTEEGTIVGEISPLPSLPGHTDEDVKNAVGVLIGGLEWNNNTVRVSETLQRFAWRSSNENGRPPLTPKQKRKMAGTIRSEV

cells [22] = type: functional, cell-based
[23] = fluconazole-exposed Candida albicans growth modulators – fluorescence, retest, confirmation (AID 2467); type: functional, cell-based
cells [24] = type: functional, cell-based; remark: listed apart in the source
[25] = microbe, parasite or virus in culture; type: functional; details: Mycobacterium tuberculosis
[26] = target: T5, Short transient receptor potential channel 4; assay: block of DAMGO-driven TRPC4 calcium entry – cell-based, HEK293 TRPC4/mu-opioid, Fluo-4 calcium, dose response (AID 434942); type: functional;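 also: potency of inhibitors blocking the TRPC4 calcium response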
INS1 = assay: INS-1E survival protection against cytokine death – cell-based, luminescence, retest, dose response (AID 449756); type: functional; details: Rattus norvegicus;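 also: cell death triggered by IL-1 beta plus TNF-alpha plus IFN-gamma mixture; protective hits raise ATP signal compared with cytokine alone wells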
[27] = NIH-3T3 fibroblast cytotoxicity, dose response, cytotoxicity control, cell-based, fluorescence, Alamar Blue, secondary assay (AID 2327); type: functional;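 also: NIH-3T3 mouse fibroblasts cultured with fluconazole at 8 µg/mL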
Cytochrome P450 2D6 = Cytochrome P450 2D6 (Homo sapiens, UniProt P10635); assay: qHTS Assay for Inhibitors and Substrates of Cytochrome P450 2D6. [Related pubchem assays: 410 ]; type: ADME; details: read-out: Potency
Chain of Cytochrome P450 2D6 (P10635 whole entry): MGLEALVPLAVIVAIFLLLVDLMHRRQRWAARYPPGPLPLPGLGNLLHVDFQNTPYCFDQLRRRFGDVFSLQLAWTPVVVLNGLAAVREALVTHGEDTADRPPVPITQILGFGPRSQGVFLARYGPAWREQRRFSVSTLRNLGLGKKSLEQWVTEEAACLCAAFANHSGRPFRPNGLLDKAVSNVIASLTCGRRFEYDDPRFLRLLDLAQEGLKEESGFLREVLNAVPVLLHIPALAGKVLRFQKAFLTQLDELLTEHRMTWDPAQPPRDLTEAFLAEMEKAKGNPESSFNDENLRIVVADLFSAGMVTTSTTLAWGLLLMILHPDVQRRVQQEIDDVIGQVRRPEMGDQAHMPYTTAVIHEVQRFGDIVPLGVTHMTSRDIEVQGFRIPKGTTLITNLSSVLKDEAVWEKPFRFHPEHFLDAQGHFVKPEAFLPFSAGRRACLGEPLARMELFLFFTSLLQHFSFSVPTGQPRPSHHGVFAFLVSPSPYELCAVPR

Cytochrome P450 2C9 = Cytochrome P450 2C9 (Homo sapiens, UniProt P11712); details: Potency
Chain of Cytochrome P450 2C9 (P11712 whole entry): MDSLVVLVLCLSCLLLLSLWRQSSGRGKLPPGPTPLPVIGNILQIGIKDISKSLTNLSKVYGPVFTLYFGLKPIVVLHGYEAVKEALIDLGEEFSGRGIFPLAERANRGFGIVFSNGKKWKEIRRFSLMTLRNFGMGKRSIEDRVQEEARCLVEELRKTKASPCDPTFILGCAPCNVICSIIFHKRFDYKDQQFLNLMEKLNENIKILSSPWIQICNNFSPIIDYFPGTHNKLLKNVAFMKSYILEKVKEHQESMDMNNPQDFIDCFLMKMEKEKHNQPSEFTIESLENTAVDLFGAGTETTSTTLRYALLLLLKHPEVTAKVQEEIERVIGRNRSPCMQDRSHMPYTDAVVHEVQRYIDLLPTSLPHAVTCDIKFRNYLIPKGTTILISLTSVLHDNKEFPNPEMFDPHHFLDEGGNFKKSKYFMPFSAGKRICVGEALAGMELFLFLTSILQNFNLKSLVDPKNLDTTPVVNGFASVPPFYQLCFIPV

Chain of Lysosomal acid glucosylceramidase (P04062 whole entry): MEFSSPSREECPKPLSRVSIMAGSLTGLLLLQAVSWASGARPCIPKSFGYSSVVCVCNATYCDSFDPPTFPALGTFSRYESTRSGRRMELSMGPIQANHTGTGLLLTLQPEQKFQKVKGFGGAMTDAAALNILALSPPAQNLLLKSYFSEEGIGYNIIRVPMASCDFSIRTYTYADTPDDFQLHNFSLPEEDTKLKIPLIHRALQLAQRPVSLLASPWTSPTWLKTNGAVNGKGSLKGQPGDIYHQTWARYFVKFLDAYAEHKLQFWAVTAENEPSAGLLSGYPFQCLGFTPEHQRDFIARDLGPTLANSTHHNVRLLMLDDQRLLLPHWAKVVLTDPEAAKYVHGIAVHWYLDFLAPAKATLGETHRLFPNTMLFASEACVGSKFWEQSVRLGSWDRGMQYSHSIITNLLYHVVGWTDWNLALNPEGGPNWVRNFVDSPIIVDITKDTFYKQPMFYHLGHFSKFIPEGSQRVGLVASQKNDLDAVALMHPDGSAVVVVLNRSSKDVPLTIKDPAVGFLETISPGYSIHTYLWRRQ

## CC1=C(C(=O)Nc2cccnc2)C(c2ccncc2)n2nnnc2N1 (centres undefined)
[1]
  EC50: > 50 µM (not active)

## COc1ccccc1N1CCN(C(CNC(=O)c2cccc(Cl)c2)c2cccnc2)CC1 (centres undefined)
Staphylococcus aureus
  IC50: 0.457 µM (active)

## Cn1nc(C(F)(F)F)c(-c2ccccc2)c1NC(=O)CCC(=O)O
[2]
  EC50: > 55.7 µM (not active)
[3]
  EC50: > 55.7 µM (not active)

## O=C(CSc1ccncc1)N1c2ccccc2Sc2ccccc21
Streptococcus
  EC50: > 500 µM (not active)

## Oc1cc2c(cc1C(c1ccc3c(c1)OCO3)N1CCOCC1)OCO2 (centres undefined)
[4]
  IC50: > 40 µM (not active)

## O=C(CCCCCn1c(=S)[nH]c2ccccc2c1=O)N1CCN(c2ccc(C(F)(F)F)cc2)CC1
Estrogen receptor
  IC50: 42.8 µM (not active)

## CCNC(=S)Nc1nc2c(cc1C(=O)OCC)CCCC2
[5]
  IC50: > 39.8 µM (not active)
[6]
  IC50: 32.7 µM (not active)

## CC(NCCC1(Cc2ccccc2Cl)CCOC(C)(C)C1)c1cccs1 (centres undefined)
[7]
  IC50: 12.7 µM (not active)
[8]
  EC50: 5.31 µM (active)
[9]
  IC50: 13.3 µM (not active)

## O=C(O)C1Nc2ccc([N+](=O)[O-])cc2C2C=CCC12 (centres undefined)
[10]
  IC50: 97.4 µM (active)
[11]
  IC50: 48.4 µM (active)
[12]
  IC50: 47.5 µM (active)
[13]
  IC50: 52 µM (active)
[14]
  IC50: 6.06 µM (active)
[15]
  IC50: 7.58 µM (active)

## COc1ccc2c(Cl)c(C(=O)N/N=C/c3ccc4c(c3)OCO4)sc2c1
[16]
  IC50: > 67 µM (not active)
[17]
  EC50: 25.4 µM (active)
[18]
  EC50: 20.7 µM (active)
[19]
  IC50: 5.11 µM (active)

## Brc1ccc(N/N=C(/N=Nc2nn[nH]n2)c2ccccc2)cc1
[20]
  IC50: 9.87 µM (active)
[21]
  IC50: 6.49 µM (active)
Nonstructural protein 1
  IC50: 6 µM (active)
Cells [22]
  EC50: 47.2 µM (active)
[23]
  EC50: > 38 µM (not active)
Cells [24]
  EC50: 86.5 µM (active)
[25]
  CC50: 7.7 µM (active)
[26]
  EC50: 7.5 µM (active)
INS1
  AC50: 1.77 µM (active)
[27]
  EC50: 2.55 µM (inconclusive)

## CN(C)c1ccc(C(=C2C=CC(=[N+](C)C)C=C2)c2c(O)c(S(=O)(=O)[O-])cc3cc(S(=O)(=O)O)ccc23)cc1
Cytochrome P450 2D6
  AC50: 3.16 µM (inconclusive)
Cytochrome P450 2C9
  AC50: 2.51 µM (inconclusive)
